Entries after “also recorded” stand apart in the source; their conditions may differ. Where a name gives a salt, the structure may show the parent alone. Read-outs that look alike come from different tables or passages of the source.
Columns and labels:
[1] = tested on: natural aversion to height and open spaces; conditions: reference anxiolytics, cited from earlier work
[2] = tested on: fear potentiated startle response; conditions: reference anxiolytics, presentation of light, cited from earlier work
anxiety disorders = conditions: in vivo; cited from earlier work
[3] = tested on: fear potentiated startle response; assay: fear potentiated startle model of anxiety; type: in vivo, Male Long Evans rats; conditions: statement in words
From the text: In the fear potentiated startle model, animals are exposed to a neutral stimulus such as light (conditioned stimulus) with an aversive stimulus such as a shock (unconditioned stimulus). Following conditioning, when the animals are presented with a loud acoustic stimulus, larger startle responses are elicited when the startle stimulus is preceded by light. The difference in amplitude between the startle response when conditioned animals are exposed to the aversive stimulus paired with a neutral stimulus and the startle response when the conditioned animal is exposed only to the aversive stimulus is known as fear potentiated startle. The amplitude of the startle response when the animal is exposed only to the aversive stimulus is known as the baseline startle. Test compounds which are effective in this model decrease the fear potentiated startle response. It is emphasized that what is being determined experimentally is the difference between the startle response with paired stimuli and the baseline startle; test compounds which are anxiolytics may increase, decrease or leave unchanged the baseline startle response. (Davis, TiPS, January 1992 [Vol. 13], 35-41).
(§1) Male Long Evans rats (180-400 g) or male NIH Swiss mice (18-35 g) were obtained from Harlan Sprague-Dawley, Cumberland, Ind., U.S.A. and acclimated at least 3 days before testing. Animals were housed at 23°±2° C. (relative humidity 30% to 70%) and given Purina Certified Rodent Chow and water ad libitum. The photoperiod was 12 hours of light and 12 hours of dark, with dark onset at approximately 1800 hours.
(§2) Test compounds were dissolved in a vehicle of purified water and neutralized with 5N NaOH to a pH of 7-8 when applicable. […] Control animals received the respective vehicle.
SL-LAB (San Diego Instruments, San Diego, Calif.) chambers were used for conditioning sessions and for the production and recording of startle responses. A classical conditioning procedure was used to produce potentiation of startle responses. Briefly, on the first 2 days, rats were placed into dark startle chambers in which shock grids were installed. Following a 5-minute acclimation period, each rat received a 1 mA electric shock (500 ms) preceded by a 5 second presentation of light (15 watt) which remained on for the duration of the shock. Ten presentations of the light and shock were given in each conditioning session, […] A block of 10 consecutive presentations of acoustic startle stimuli (110 dB, non-light-paired) were presented at the beginning of the session in order to minimize the influences of the initial rapid phase of habituation to the stimulus. […]

[4] = tested on: negatively coupled cAMP-linked metabotropic glutamate receptors; assay: selectivity of agonism at metabotropic glutamate receptors
From the text: As described previously herein, it is preferred to use an agonist which acts selectively at negatively coupled cAMP-linked metabotropic glutamate receptors (relative to other glutamate receptors) in the methods according to the invention. Such an agonist may be a single compound, for example one of the four compounds named hereinabove, or two or more compounds which, in combination function as an agonist which acts selectively at negatively coupled cAMP-linked metabotropic glutamate receptors.

[5] = tested on: natural aversion to height and open spaces; assay: automated elevated plus maze model of anxiety; type: in vivo, male NIH Swiss mice
Method: The elevated plus maze model is based upon the natural aversion of rodents to height and open spaces.
as §1, §2
Construction of the elevated plus-maze was based on a design validated for mice by Lister (1987). The entire maze was made of clear Plexiglas. The maze was comprised of two open arms (30×5×0.25 cm) and two enclosed arms (30×5×15 cm). The floor of each maze arm was corrugated to provide texture. The arms extended from a central platform and angled at 90 degrees from each other. The maze was elevated to a height of 45 cm above the floor and illuminated by red light. Individual infrared photocells were mounted along each arm of the maze to monitor closed, open, or nosepoke activity. Mice were individually placed on the central platform of the maze and the number of closed arm, open arm, and nosepoke (poking head only into open arm from closed arm of maze) counts were recorded and used as a measure of arm entries and time spent on various sections of the maze over a five-minute test period.

[6] = tested on: negatively coupled cAMP-linked metabotropic glutamate receptors; conditions: Schoepp and Johnson, Neuropharmacology Vol. 32; cited from earlier work

**Q.** Which results are given for `CN1C(=O)CN=C(c2ccccc2)c2cc(Cl)ccc21` [Diazepam]?
**A.** reduction of fear of open spaces in the elevated plus maze model [1]: reducing the fear of open spaces; reduction of fear (increased startle response) in the fear potentiated startle model [2]: effective at reducing the fear

**Q.** Which “reduction of fear of open spaces in the elevated plus maze model” value ([1]; hydrochloride) does the source give for `O=C1CC2(CCCC2)CC(=O)N1CCCCN1CCN(c2ncccn2)CC1` [Buspirone hydrochloride, buspirone hydrochloride] here?
**A.** Its value is “effective; also recorded: reducing the fear of open spaces”.

**Q.** What about the “reduction of fear (increased startle response) in the fear potentiated startle model” value ([2]; hydrochloride) of the same compound?
**A.** Its value is “effective at reducing the fear”.

**Q.** What about the dependence-inducing side effects (anxiety disorders) of the same compound?
**A.** Its dependence-inducing side effects is “lacks the dependence-inducing side effects”.

**Q.** Which “efficacy in fear potentiated startle model of anxiety” value [3] does the source give for `N[C@@]1(C(=O)O)CO[C@H]2[C@H](C(=O)O)[C@H]21` [1R,4R,5S,6R-4-amino-2-oxabicyclo[3.1.0]hexane-4,6-dicarboxylic acid] here?
**A.** Its value is “effective”.

**Q.** What about the “selectivity as agonist at negatively coupled cAMP-linked metabotropic glutamate receptors” value (from here on “selectivity as agonist”) [4] of the same compound?
**A.** The value was “act selectively as agonists”.

**Q.** For `N[C@@]1(C(=O)O)CS[C@@H]2[C@H](C(=O)O)[C@@H]21` (relative stereo) [1SR,4SR,5RS,6SR-4-amino-2-thiabicyclo[3.1.0]hexane-4,6-dicarboxylic acid], which “efficacy in fear potentiated startle model of anxiety” value [3] is on record?
**A.** Its value is “effective”.

**Q.** And the “selectivity as agonist” value [4]?
**A.** Its value is “act selectively as agonists”.

**Q.** What does the source list for `N[C@]1(C(=O)O)CO[C@@H]2[C@@H](C(=O)O)[C@@H]21` (relative stereo) [1SR,4SR,5RS,6SR-4-amino-2-oxabicyclo[3.1.0]hexane-4,6-dicarboxylic acid]?
**A.** efficacy in fear potentiated startle model of anxiety [3]: effective; selectivity as agonist at negatively coupled cAMP-linked metabotropic glutamate receptors [4]: act selectively as agonists

**Q.** Which Nosepoke counts ([5]; oral, 3 mg/kg, mice, five-minute test period) does the source give for `NC1(C(=O)O)CCC2C(C(=O)O)C21` (single isomer, unassigned; (+)) [(+)-2-Aminobicyclo[3.1.0]hexane-2,6-dicarboxylic Acid] here?
**A.** The Nosepoke counts was “significant increase”.

**Q.** What about the open arm activity ([5]; oral, 1, 3 and 10 mg/kg, mice, five-minute test period) of the same compound?
**A.** Its open arm activity is “significant increases”.

**Q.** And the “Closed arm activity counts” value ([5]; oral, any dose, mice, five-minute test period)?
**A.** The value was “not significantly altered”.

**Q.** And the “efficacy in elevated plus maze model of anxiety” value ([5]; statement in words)?
**A.** The value was “effective”.

**Q.** What about the “efficacy in fear potentiated startle model of anxiety” value [3] of the same compound?
**A.** Its value is “effective”.

**Q.** What about the “selectivity as agonist” value [4] of the same compound?
**A.** The value was “acts selectively as an agonist”.

**Q.** For `N[C@@]1(C(=O)O)CC[C@@H](C(=O)O)C1` [1S,3R-1-aminocyclopentane-1,3-dicarboxylic acid], which “action at PI-linked metabotropic glutamate receptors” value [6] is on record?
**A.** The value was “also acts at PI-linked metabotropic glutamate receptors”.

**Q.** What about the “selectivity at negatively coupled cAMP-linked metabotropic glutamate receptors” value [6] of the same compound?
**A.** Its value is “act non-selectively”.

Reference: patent publication US5882671A, “Anxiolytic agents” (Eli Lilly and Company, priority 1997, dated 1999)
